Measured values taken from US7183276B2, “Azole compounds” (Takeda Pharmaceutical Company Limited, priority 2002, dated 2007).

Compared with `O=C(CCc1oc(-n2cnc3ccccc32)nc1-c1ccc(Cl)cc1)N1CCN(c2ccccn2)CC1` [Example 93, 1-{3-[2-(1H-benzimidazol-1-yl)-4-(4-chlorophenyl)-5-oxazolyl]propanoyl}-4-(2-pyridinyl)piperazine], `O=C(CCc1oc(-n2cnc3ccccc32)nc1-c1ccc(Cl)cc1)NCCc1ccccn1` [Example 92, 3-[2-(1H-benzimidazol-1-yl)-4-(4-chlorophenyl)-5-oxazolyl]-N-[2-(2-pyridinyl)ethyl]propionamide] is lower in melting point: 174 to 176 °C for the first, 150 to 151 °C for the second.

First: Cc1ccc(Cl)cc1CNC(=O)CCc1oc(-n2cnc3ccccc32)nc1-c1ccc(Cl)cc1 [Example 176, 3-[2-(1H-benzimidazol-1-yl)-4-(4-chlorophenyl)-5-oxazolyl]-N-(5-chloro-2-methylbenzyl)propionamide]
Second: O=C(CCc1oc(-n2cnc3ccccc32)nc1-c1ccc(Cl)cc1)NCc1cc(F)ccc1F [Example 158, 3-[2-(1H-benzimidazol-1-yl)-4-(4-chlorophenyl)-5-oxazolyl]-N-(2,5-difluorobenzyl)propionamide]
The melting point of the first is higher: 217 to 219 °C for the first, 197 to 198 °C for the second.

Compared with `O=C(CCc1oc(-n2cnc3ccccc32)nc1-c1ccc(Cl)cc1)N1CCS(=O)(=O)C1` [Example 344, 3-{3-[2-(1H-benzoimidazol-1-yl)-4-(4-chlorophenyl)-5-oxazolyl]propanoyl}thiazolidine-1,1-dioxide], `O=C(CCc1oc(-n2cnc3ccccc32)nc1-c1ccc(Cl)cc1)NCc1ccccc1Cl` [Example 134, 3-[2-(1H-benzimidazol-1-yl)-4-(4-chlorophenyl)-5-oxazolyl]-N-(2-chlorobenzyl)propionamide] is higher in melting point: 136 to 137 °C for the first, 222 to 223 °C for the second.

`CCOP(=O)(Cc1ccc(NC(=O)CCc2sc(NC(=O)CCc3ccccc3)nc2-c2ccc(Cl)cc2)cc1)OCC` and `CCOP(=O)(Cc1ccc(NC(=O)CCc2sc(NC(=S)NC(=O)c3ccccc3)nc2-c2ccc(Cl)cc2)cc1)OCC` fall in the same range of melting point: 208 to 209 °C for the first, 208 to 209 °C for the second.

First: CN(C)C(=O)Cc1ccc(NC(=O)CCc2oc(-n3cnc4ccccc43)nc2-c2ccc(Cl)cc2)cc1 [Example 142, 2-[4-({3-[2-(1H-benzimidazol-1-yl)-4-(4-chlorophenyl)-5-oxazolyl]propanoyl}amino)phenyl]-N,N-dimethylacetamide]
Second: CCOP(=O)(OCC)C(OC)c1ccc(NC(=O)CCc2oc(-n3cnc4ccccc43)nc2-c2ccc(Cl)cc2)cc1 (centres unmarked)
The melting point of the first is higher: 207 to 208 °C for the first, 191 to 192 °C for the second.

Compared with `N#CCc1ccc(NC(=O)Cc2sc(-n3cnc4ccccc43)nc2-c2ccc(Cl)cc2)cc1` [Example 219, 2-[2-(1H-benzimidazol-1-yl)-4-(4-chlorophenyl)-5-thiazolyl]-N-[4-(cyanomethyl)phenyl]acetamide], `CCOP(=O)(Cc1ccc(NC(=O)CCCc2sc(-n3cnc4ccccc43)nc2-c2ccc(Cl)cc2)cc1)OCC` is lower in melting point: 245 to 246 °C for the first, 140 to 141 °C for the second.

First: O=C(CCc1oc(-n2cnc3ccccc32)nc1-c1ccc(Cl)cc1)NCc1ccccc1C(F)(F)F [Example 157, 3-[2-(1H-benzimidazol-1-yl)-4-(4-chlorophenyl)-5-oxazolyl]-N-[2-(trifluoromethyl)benzyl]propionamide]
Second: O=C(CCc1oc(-n2cnc3ccccc32)nc1-c1ccc(Cl)cc1)NCc1cc(F)cc(C(F)(F)F)c1 [Example 163, 3-[2-(1H-benzimidazol-1-yl)-4-(4-chlorophenyl)-5-oxazolyl]-N-[3-fluoro-5-(trifluoromethyl)benzyl]propionamide]
The melting point of the first is higher: 208 to 209 °C for the first, 198 to 200 °C for the second.

First: NC(=O)CCc1oc(Sc2ccccn2)nc1-c1ccc(Cl)cc1 [Example 36, 3-[4-(4-chlorophenyl)-2-(2-pyridinylsulfanyl)-5-oxazolyl]propionamide]
Second: NC(=O)CCc1oc(Sc2ncccn2)nc1-c1ccc(Cl)cc1 [Example 33, 3-[4-(4-chlorophenyl)-2-(2-pyrimidinylsulfanyl)-5-oxazolyl]propionamide]
The melting point of the first is lower: 162 to 163 °C for the first, 194 to 195 °C for the second.

Compared with `COP(=O)(Cc1ccc(NC(=O)CCc2oc(-c3ccccc3)nc2-c2ccc(Cl)cc2)cc1)OC`, `COC(=O)c1ccc(NC(=O)CCc2oc(-c3ccccc3)nc2-c2ccc(Cl)cc2)cc1` [Example 42, 3-[4-(4-chlorophenyl)-2-phenyl-5-oxazolyl]-N-[4-(methoxycarbonyl)phenyl]propionamide] is higher in melting point: 153 to 154 °C for the first, 198 to 200 °C for the second.

First: COc1ccc(-c2nc(-n3cnc4ccccc43)oc2CCC(=O)N2CCN(CC3CCCN(C)C3)CC2)cc1 (centres unmarked) [Example 252, 1-{3-[2-(1H-benzoimidazol-1-yl)-4-(4-methoxyphenyl)-5-oxazolyl]propanoyl}-4-[(1-methylpiperidin-3-yl)methyl]piperazine]
Second: COc1ccc(OC)c(CNC(=O)CCc2oc(-n3cnc4ccccc43)nc2-c2ccc(Cl)cc2)c1 [Example 179, 3-[2-(1H-benzimidazol-1-yl)-4-(4-chlorophenyl)-5-oxazolyl]-N-(2,5-dimethoxybenzyl)propionamide]
The melting point of the first is lower: 151 to 152 °C for the first, 193 to 194 °C for the second.

First: CCOP(=O)(Cc1ccc(NC(=O)CCc2oc(-c3ccc(F)cc3)nc2-c2ccc(Cl)cc2)cc1)OCC
Second: CCOP(=O)(Cc1ccccc1NC(=O)CCCc1oc(-n2cnc3ccccc32)nc1-c1ccc(Cl)cc1)OCC
The melting point of the first is higher: 148 to 149 °C for the first, 133 to 136 °C for the second.

First: CCCc1nc(-c2ccc(Cl)cc2)c(CCC(=O)N2CCN(CC3CCN(C)CC3)CC2)o1.Cl.Cl
Second: NC(=O)CCCc1oc(-c2ccccc2)nc1-c1ccc(Cl)cc1 [Example 52, 4-[4-(4-chlorophenyl)-2-phenyl-5-oxazolyl]butanamide]
The melting point of the first is higher: 218 °C for the first, 168 to 169 °C for the second.

First: O=C(CCc1oc(-n2cnc3ccccc32)nc1-c1ccc(Cl)cc1)NCc1ccc(F)c(Cl)c1 [Example 173, 3-[2-(1H-benzimidazol-1-yl)-4-(4-chlorophenyl)-5-oxazolyl]-N-(3-chloro-4-fluorobenzyl)propionamide]
Second: O=C(CCc1oc(-n2cnc3ccccc32)nc1-c1ccc(Cl)cc1)NCc1cc(F)cc(F)c1 [Example 164, 3-[2-(1H-benzimidazol-1-yl)-4-(4-chlorophenyl)-5-oxazolyl]-N-(3,5-difluorobenzyl)propionamide]
The melting point of the first is higher: 188 to 189 °C for the first, 155 to 156 °C for the second.

First: COc1cc(CNC(=O)CCc2oc(-n3cnc4ccccc43)nc2-c2ccc(Cl)cc2)cc(OC)c1OC [Example 169, 3-[2-(1H-benzimidazol-1-yl)-4-(4-chlorophenyl)-5-oxazolyl]-N-(3,4,5-trimethoxybenzyl)propionamide]
Second: O=C(CCCc1oc(-n2cnc3ccccc32)nc1-c1ccc(Cl)cc1)NCc1cc(Br)ccc1F [Example 195, 4-[2-(1H-benzimidazol-1-yl)-4-(4-chlorophenyl)-5-oxazolyl]-N-(5-bromo-2-fluorobenzyl)butanamide]
The melting point of the first is lower: 169 to 170 °C for the first, 196 to 198 °C for the second.

`O=C(CCc1sc(-n2cnc3ccccc32)nc1-c1ccc(Cl)cc1)NCc1cc(Br)ccc1F` [Example 202, 3-[2-(1H-benzimidazol-1-yl)-4-(4-chlorophenyl)-5-thiazolyl]-N-(5-bromo-2-fluorobenzyl)propionamide] showed a melting point of 188 to 189 °C.
